According to PubChem BioAssay (NCI):
Where “and” joins values, the source holds several entries; their conditions need not be identical. Equal entries are not always repeated.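 A five-concentration, 48-hour dose response in 96-well plates underlies each endpoint, interpolated linearly between surrounding concentrations. At the GI50, growth is halved. TGI: total growth inhibition.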

What was measured:
Assay in all cases: NCI-60 cell line screen, 48 h
786-0 renal = tested on: 786-0 renal
ACHN renal = tested on: ACHN renal
CAKI-1 renal = tested on: CAKI-1 renal
CCRF-CEM leukemia = tested on: CCRF-CEM leukemia
NCI-H23 lung = tested on: NCI-H23 lung
PC-3 prostate = tested on: PC-3 prostate
SK-MEL-28 melanoma = tested on: SK-MEL-28 melanoma
SNB-75 CNS = tested on: SNB-75 CNS
T-47D breast = tested on: T-47D breast
U251 CNS = tested on: U251 CNS

Compound	TGI (786-0 renal) [µM]	TGI (ACHN renal) [µM]	TGI (CAKI-1 renal)	TGI (CCRF-CEM leukemia) [µM]	TGI (NCI-H23 lung)	TGI (PC-3 prostate) [µM]	TGI (SK-MEL-28 melanoma) [µM]	TGI (SNB-75 CNS) [µM]	TGI (T-47D breast) [µM]	TGI (U251 CNS) [µM]	GI50 (786-0 renal) [µM]	GI50 (ACHN renal) [µM]	GI50 (CAKI-1 renal) [µM]	GI50 (CCRF-CEM leukemia) [µM]	GI50 (NCI-H23 lung) [µM]	GI50 (PC-3 prostate) [µM]	GI50 (SK-MEL-28 melanoma) [µM]	GI50 (SNB-75 CNS) [µM]	GI50 (T-47D breast) [µM]	GI50 (U251 CNS) [µM]
C/C=C(\N=C=S)C(=O)OC1C(COC(C)=O)OC([C@]2(O)CC(=O)C(=N)C(C(=O)O)=C2O)C(O)C1OC1CC(OC)C(O)([C@@H](C)OC(=O)[C@@H](C)CC)C(C)O1 (stereo partly specified)	26.6	33.1	35 µM	7.45	23.9 µM	32.7	18.5	34.8	42.1	21.8	–	–	–	–	–	–	–	–	–	–
NCCCNc1nc2ccccc2c2c(=O)c3cc(F)ccc3sc12	3.01	2.93	2.75 µM	3.72	3.19 µM	2.98	3.24	2.64	3.58	3.25	1.54	1.58	1.41	1.81	1.64	1.45	1.79	1.31	1.63	1.64
C=CCn1c2ccccc2c2c3c(c4c5ccccc5n(CC=C)c4c21)C(=O)N(O)C3=O	40.4	3.89	3.45 µM	7.1	22.2 µM	25.3	> 100	24.2	33.2	11.4	2.66	1.6	1.69	0.971	3.03	2.69	5.47	3.55	2.03	2.79
NS(=O)(=O)c1ccc(N=Nc2ccc[nH]c2=O)cc1	> 100	> 100	> 100 µM	74.6	> 100 µM	> 100	> 100	> 100	> 100	> 100	–	–	–	–	–	–	–	–	–	–
C=C1c2nc3ccccc3n2C=C(c2cccc(Cl)c2)N1Cc1ccc(OC)cc1	17.3	> 100	4.71 µM	> 23.3	> 35.7 µM	> 70.3	54.4	> 100	> 80.4	> 100	3.08	1.11	–	2.75	0.77	2.21	10.5	0.452	2.55	0.768
COc1cccc2c1C(=O)c1c(O)c3c(c(O)c1C2=O)C[C@@](O)(C(=O)CO)CC3OC1CC(N)C(OC2CCCCO2)C(C)O1 (stereo partly specified)	–	0.029	5.38 µM and 2.76 µM	–	0.302 µM and 2.33 µM	0.363	–	–	0.925	–	0.0131	–	0.523	0.00327	0.0218	–	0.113	0.0171	–	0.00812
CN1CCC2(CC1)N=C(SCC(=O)Nc1cnc3ccccc3c1)C(c1ccc(Br)cc1)=N2	2.85	3.39	3.94 µM	5.31	16.3 µM	3.74	3.3	9.65	7.35	3.65	1.5	1.7	1.64	2.21	4.3	1.77	1.79	2.04	2.24	1.83
N#C/C(=C\c1cc(O)c(O)c(O)c1)C(N)=O	> 100	> 100	> 100 µM	> 76.2	> 100 µM	> 100	> 100	> 100	> 100	> 100	–	–	–	–	–	–	–	–	–	–
CC1=CC(=O)N(c2cccc3c(N4C(=O)C=C(C)C4=O)cccc23)C1=O	23.5	11	13.8 µM	11.1	39.7 µM	22.7	43.5	> 100	9.12	19.5	7.5	2.78	3.61	1.52	15.3	7.97	7.81	28.1	2.07	5.88
c1ccc(-c2[nH]ncc2-c2ccnc(-c3ccc(OCCN4CCOCC4)cc3)c2)nc1	> 25	> 25	> 25 µM	> 25	> 25 µM	> 25	> 25	> 25	> 25	> 25	> 25	> 25	> 25	> 25	> 25	> 25	> 25	> 25	> 25	> 25
O=C1/C(=C\c2ccc(F)cc2)CN(C(=O)c2ccccc2F)C/C1=C\c1ccc(F)cc1	3.17	3.6	9.16 µM	4.97	4.91 µM	4.89	3.36	10.9	7.02	2.58	1.61	1.61	2.65	0.736	2.09	1.62	1.82	2.64	2.28	1.27
O=C1C=C(NCCO)c2nccc3c2c1nc1ccccc13	> 100	> 100	82.2 µM	> 100	67.3 µM	> 100	> 100	> 100	> 100	> 100	31.5	16.3	23.3	21.3	19.1	27.3	41.4	49.7	46.2	23.4
COc1cc(-c2nn(-c3ccc(NC(=O)Nc4cc(C(F)(F)F)cc(C(F)(F)F)c4)cc3)cc2-c2ccncc2)ccc1Cl	6.39	7.86	6.73 µM	> 100	5.56 µM	10.8	3.74	5.35	7.77	4.52	2.48	1.94	1.97	2.13	2.01	1.2	1.93	1.99	1.96	1.8
